Measurements: PubChem BioAssay AID328 (DTP/NCI, 2004)
“And” between values parts separate entries of the source, which are not always exact repeats. Identical values can stand only once. Inconclusive results and toxic doses are left out. How the source made its calls: active means survival T/C of 150% or more; inactive means T/C below 125% in these data.

System: BDF1 mice, P388 leukemia ip, median survival T/C
Test: NCI In Vivo Anticancer Drug Screen. Data for tumor model P388 Leukemia (intraperitoneal) in B6D2F1 (BDF1) mice
Details: endpoint: median survival time, higher = longer survival
Procedure, shortened: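 Reported as T/C, where T is the survival measurement in dosed animals and C the same measurement in vehicle controls.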

[1] = dose: 25.0 mg/kg/injection, schedule: Q04DX003 (ip), vehicle: saline with Tween-80
[2] = dose: 50.0 mg/kg/injection, schedule: Q04DX003 (ip), vehicle: saline with Tween-80
[3] = dose: 100.0 mg/kg/injection, schedule: Q04DX003 (ip), vehicle: saline with Tween-80
[4] = dose: 100.0 mg/kg/injection, schedule: Q04DX003 (ip), vehicle: Klucel (hydroxypropylcellulose) (HPC)
[5] = dose: 200.0 mg/kg/injection, schedule: Q04DX003 (ip), vehicle: Klucel (hydroxypropylcellulose) (HPC)

Measured: T/C

O=[N+]([O-])/C=C/c1ccc2ccccc2n1
inactive: dose: 1.25 mg/kg/injection, schedule: Q01DX009 (ip), vehicle: saline with Tween-80 103 % of control | dose: 2.5 mg/kg/injection, schedule: Q01DX009 (ip), vehicle: saline with Tween-80 92 % of control and 94 % of control | dose: 5.0 mg/kg/injection, schedule: Q01DX009 (ip), vehicle: saline with Tween-80 94 % of control and 110 % of control | dose: 10.0 mg/kg/injection, schedule: Q01DX009 (ip), vehicle: saline with Tween-80 94 % of control and 115 % of control | dose: 12.5 mg/kg/injection, schedule: Q04DX003 (ip), vehicle: saline with Tween-80 111 % of control | dose: 20.0 mg/kg/injection, schedule: Q01DX009 (ip), vehicle: saline with Tween-80 94 % of control | [1] 102 % of control

CCOC(=O)c1c(NC(=O)C(F)(F)F)[nH]c(SSc2[nH]c(NC(=O)C(F)(F)F)c(C(=O)OCC)c2C(=O)OCC)c1C(=O)OCC
inactive: dose: 1.0 mg/kg/injection, schedule: Q01DX009 (ip), vehicle: water 111 % of control | dose: 2.0 mg/kg/injection, schedule: Q01DX009 (ip), vehicle: water 90 % of control | dose: 4.0 mg/kg/injection, schedule: Q01DX009 (ip), vehicle: water 104 % of control | dose: 8.0 mg/kg/injection, schedule: Q01DX009 (ip), vehicle: water 104 % of control | [2] 106 % of control | [3] 117 % of control | dose: 200.0 mg/kg/injection, schedule: Q04DX003 (ip), vehicle: saline with Tween-80 106 % of control

CC(C)COC(=O)NCCF
inactive: dose: 6.25 mg/kg/injection, schedule: Q01DX009 (ip), vehicle: saline with Tween-80 107 % of control | dose: 12.5 mg/kg/injection, schedule: Q01DX009 (ip), vehicle: saline with Tween-80 112 % of control | dose: 25.0 mg/kg/injection, schedule: Q01DX009 (ip), vehicle: saline with Tween-80 120 % of control

COC(C)C(NC(=O)C1CCCN1C)C1OC(SCCOC(=O)c2ccccc2O)C(O)C(O)C1O (centres undefined)
inactive: dose: 50.0 mg/kg/injection, schedule: Q01DX009 (ip), vehicle: saline 100 % of control | dose: 100.0 mg/kg/injection, schedule: Q01DX009 (ip), vehicle: saline 100 % of control and 101 % of control (2×) | dose: 200.0 mg/kg/injection, schedule: Q01DX009 (ip), vehicle: saline 104 % of control

CC1SC(c2ccccc2)N(c2ccccc2)C1=O (centres undefined)
inactive: dose: 100.0 mg/kg/injection, schedule: Q01DX009 (ip), vehicle: Klucel (hydroxypropylcellulose) (HPC) 104 % of control | [4] 104 % of control | dose: 200.0 mg/kg/injection, schedule: Q01DX009 (ip), vehicle: Klucel (hydroxypropylcellulose) (HPC) 116 % of control | [5] 104 % of control | dose: 400.0 mg/kg/injection, schedule: Q01DX009 (ip), vehicle: Klucel (hydroxypropylcellulose) (HPC) 100 % of control | dose: 400.0 mg/kg/injection, schedule: Q04DX003 (ip), vehicle: Klucel (hydroxypropylcellulose) (HPC) 109 % of control

CC12C3C(=O)NC45CCCC41C5(c1ccccc1)C32c1ccccc1 (centres undefined)
inactive: dose: 100.0 mg/kg/injection, schedule: Q01DX001 (ip), vehicle: saline sonified 95 % of control | dose: 200.0 mg/kg/injection, schedule: Q01DX001 (ip), vehicle: saline sonified 95 % of control | dose: 400.0 mg/kg/injection, schedule: Q01DX001 (ip), vehicle: saline sonified 86 % of control

CCNC(C)(C)C(Cl)c1ccc(Cl)s1 (centres undefined)
inactive: dose: 25.0 mg/kg/injection, schedule: Q01DX009 (ip), vehicle: Klucel (hydroxypropylcellulose) (HPC) 91 % of control | [1] 104 % of control | dose: 50.0 mg/kg/injection, schedule: Q01DX009 (ip), vehicle: Klucel (hydroxypropylcellulose) (HPC) 104 % of control | [2] 101 % of control | [3] 95 % of control

COc1ccccc1C(C#N)N1CCCN(C(C#N)c2ccccc2OC)C1c1cc(Cl)cc(Cl)c1O (centres undefined)
inactive: dose: 50.0 mg/kg/injection, schedule: Q01DX009 (ip), vehicle: saline with Tween-80 95 % of control | dose: 100.0 mg/kg/injection, schedule: Q01DX009 (ip), vehicle: saline with Tween-80 98 % of control | dose: 200.0 mg/kg/injection, schedule: Q01DX009 (ip), vehicle: saline with Tween-80 98 % of control | dose: 400.0 mg/kg/injection, schedule: Q01DX009 (ip), vehicle: saline with Tween-80 91 % of control

Cc1c(N)nc(=S)[nH]c1C(=O)O
inactive: dose: 50.0 mg/kg/injection, schedule: Q04DX003 (ip), vehicle: Klucel (hydroxypropylcellulose) (HPC) 113 % of control | dose: 100.0 mg/kg/injection, schedule: Q01DX001 (ip), vehicle: Klucel (hydroxypropylcellulose) (HPC) 109 % of control | [4] 100 % of control | dose: 200.0 mg/kg/injection, schedule: Q01DX001 (ip), vehicle: Klucel (hydroxypropylcellulose) (HPC) 109 % of control | [5] 100 % of control | dose: 400.0 mg/kg/injection, schedule: Q01DX001 (ip), vehicle: Klucel (hydroxypropylcellulose) (HPC) 104 % of control
